These results are taken from PubChem BioAssay (NCI).

Values joined by “and” are separate entries in the source; they are usually repeats but may differ in a detail not shown here. Equal values may be shown once.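 Grown in 96-well plates, cells were treated for 48 hours with each compound at five concentrations. Insufficient inhibition: endpoint recorded as highest concentration tested. GI50: concentration for 50% inhibition of growth. The concentration for full growth arrest is given as TGI.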 A value given as a limit tells only on which side of the number the result lay.

Experiment in all cases: NCI tumour cell line growth inhibition, 48 h
For test [1], the system named is NCI-H460 lung.
Test [2] relates to SF-268 CNS.
Test [3] relates to IGROV1 ovarian.
Test [4] concerns U251 CNS.
Test [5] concerns RXF 393 renal.
In test [6] the test system is CCRF-CEM leukemia.
The test system of test [7] is SN12C renal.
Test [8] deals with SNB-19 CNS.
For test [9], the system named is CAKI-1 renal.
The test system of test [10] is NCI/ADR-RES ovarian.

`Brc1ccc(Nc2nc3ccccc3nc2Nc2ccc(Br)cc2)cc1`: the GI50 in test [1] is 0.39 µM; in test [2] it was 1.69 µM; in [3], 1.43 µM; in test [4], 0.429 µM; in test [5] it was 1.49 µM; in test [6] it was 1.01 µM. Further, the GI50 is 2.16 µM in test [7], 0.591 µM in test [8], 0.714 µM in [9] and 1.62 µM in [10]. The TGI in test [1] amounted to 2.56 µM; in [2], 13.3 µM; in test [3], 13.5 µM; in [4] it was 2.22 µM; in test [5], 6.38 µM; in [6] it was 10.7 µM. The TGI in [7] is 6.5 µM; in test [8], 12.2 µM; in [9], 6.61 µM; in test [10], 10.5 µM.
Consider `C=C1C(=O)OC2CC1C(OC(C)=O)C/C(C)=C/CC/C(C)=C\CCC2(C)O` (stereo not drawn), for which the TGI was 14.1 µM and 8.22 µM in test [1]; 22.9 µM and 20.3 µM in [2]; 14.5 µM and 20.1 µM in [3]; 25.2 µM and 26.7 µM in [4]; 14 µM in test [5]; 11.3 µM and 16.6 µM in test [7]. The TGI was 40.1 µM and 32 µM in test [8]; 14.2 µM and 9.91 µM in test [9]; 15.4 µM and 17.4 µM in [10]. For the same compound, the GI50 in test [3] was 3.34 µM and 6.68 µM; in test [6] it was 0.469 µM and 2.36 µM.
As for `CC(Cc1cccc2c1Nc1ccccc1S2)N(C)CCO` (stereo not drawn), the TGI in test [1], in test [2], in [3], in test [4], in [5] and in test [6] was over 100 µM each time. For the same compound, the TGI in [7], in test [8], in [9] and in test [10] was over 100 µM throughout.
Consider `NCCCNc1nc2ccc(Cl)cc2c2c(=O)c3cc(F)ccc3sc12`, for which the GI50 was 1.73 µM in [1]; 4.1 µM in test [2]; 1.91 µM in test [3]; 2.95 µM in test [5]; 2.35 µM in test [6]; 2.27 µM in [7]. In addition, the GI50 was 9.43 µM in test [8], 6.39 µM in test [9] and 2.23 µM in test [10]. Further, the TGI in test [1] was found to be 3.46 µM; in [2], 18.2 µM; in test [3], 5.1 µM; in test [5] it was 12.3 µM; in test [6], 6.65 µM; in test [7] it was 6.08 µM. The values for the TGI in test [8], in test [9] and in [10] were 25.4 µM, 20.2 µM and 5.62 µM, respectively.
For the compound `C=C(CN1CCN(c2ccccc2C(F)(F)F)CC1)c1ccc(C(=O)Nc2ccccc2N)cc1`, the GI50 in test [1] is 5.59 µM; in [2] it was 4.55 µM; in [3] it was 6.03 µM; in [4], 4.64 µM; in [5] it was 1.67 µM; in test [6], 0.0728 µM. Also, the GI50 in [7] is 6.43 µM; in test [8] it was 24.4 µM; in [9], 7.97 µM; in test [10] it was 2.01 µM. For the same compound, the TGI in [1] is 43.6 µM; in [2], over 47 µM; in test [3] it was over 100 µM; in test [4] it was over 68.1 µM; in test [5], 4.78 µM; in [6], 0.546 µM. Moreover, the TGI in [7] is 23.9 µM; in [8], over 100 µM; in test [9] it was over 51.4 µM; in test [10], 10.5 µM.
As to `O=C1c2cccnc2C(=O)c2c1c(C(=O)OCCc1ccccn1)c1ccccn21`, the GI50 is under 0.01 µM in [1]; 0.0188 µM in test [2]; 0.0421 µM in [3]; 0.0216 µM in test [4]; 0.124 µM in test [5]; 1.46 µM in test [6]. In addition, the GI50 in test [7] was 0.0261 µM; in [8], 0.0308 µM; in [9], 0.039 µM; in [10], 0.0252 µM. Also, the TGI in [1] was 0.079 µM; in test [2], 5.31 µM; in [3] it was 4.73 µM; in [4] it was 0.261 µM; in test [5], 1.4 µM; in test [6], over 25.9 µM. Further, the TGI was 1.59 µM in [7], 1.59 µM in [8], 11.3 µM in [9] and 1.15 µM in [10].
With `CCOC(=O)c1cn(CC)c2ccc3ccsc3c2c1=O`, the TGI in [1], in [2], in test [3], in test [4], in [5] and in test [6] was over 100 µM in each case. Also, the TGI in [8], in [9] and in test [10] was over 100 µM throughout.
Regarding `CCCCCCc1cc2cc(-c3csc(/C=C/c4ccccc4)n3)c(=O)oc2cc1O`, the GI50 is 7.01 µM in test [1]; 11.6 µM in test [2]; 15.9 µM in test [3]; 2.91 µM in [4]; 3.71 µM in test [5]; 4.2 µM in [6]. Further, the GI50 in test [7] was 2.12 µM; in [8] it was 10.3 µM; in test [9], 19 µM; in [10], 4.53 µM. Also, the TGI in [1] stood at 21.7 µM; in [2] it was 28.9 µM; in [3] it was 38.3 µM; in test [4], 10.5 µM; in [5], 15.1 µM; in test [6] it was 15 µM. Further, the TGI was determined as 4.43 µM in test [7], 34.3 µM in test [8], 48.5 µM in test [9] and 17.7 µM in test [10].
As to `COc1ccc(/C=C/C(=O)c2ccc(Nc3nc(Nc4ccc(F)cc4)nc(Nc4ccc(Cl)cc4)n3)cc2)cc1`, the GI50 was 9.91 µM in [1]; over 100 µM in test [2]; 17.7 µM in test [3]; 49 µM in test [4]; 13 µM in [5]; 37.4 µM in test [6]. Also, the GI50 in [7] was over 100 µM; in test [8] it was over 100 µM; in [9], 69.6 µM; in [10], over 100 µM. In addition, the TGI in test [1] is 84.3 µM; in test [2], over 100 µM; in test [3], over 100 µM; in [4] it was over 100 µM; in [5] it was over 100 µM; in test [6] it was over 100 µM. In addition, the TGI in test [7], in [8], in [9] and in test [10] was over 100 µM in each case.
